The values below come from US8513418B2, “Substituted bicyclic methyl amine derivatives as sphingosine-1 phosphate receptors modulators” (Allergan, Inc., priority 2011, dated 2013).

Where only a bound is given, the exact number is not on record here.

The first test deals with T1, human S1P1 receptor (Homo sapiens, UniProt P21453).
T1 construct: expressed in transfected cells; membranes of cells stably expressing the receptor
T1 sequence (P21453 whole entry): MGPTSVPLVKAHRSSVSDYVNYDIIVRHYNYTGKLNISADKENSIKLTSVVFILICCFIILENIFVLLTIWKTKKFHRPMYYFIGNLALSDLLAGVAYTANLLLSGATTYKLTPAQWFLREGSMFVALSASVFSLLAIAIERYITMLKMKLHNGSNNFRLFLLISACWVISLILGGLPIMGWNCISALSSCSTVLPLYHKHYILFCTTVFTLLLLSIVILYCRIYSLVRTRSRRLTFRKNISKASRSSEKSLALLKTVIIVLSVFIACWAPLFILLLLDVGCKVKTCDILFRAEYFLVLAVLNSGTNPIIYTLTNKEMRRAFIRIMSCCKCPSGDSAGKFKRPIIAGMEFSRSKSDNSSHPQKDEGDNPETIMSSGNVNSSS
The experiment in a line: GTP γ35S binding assay for S1P1 activity. Type of test: biochemical. Particulars: membranes of cells stably expressing the S1P1 receptor. The procedure: Novel compounds were synthesized and tested for S1P1 activity using the GTP γ^35S binding assay. These compounds may be assessed for their ability to activate or block activation of the human S1P1 receptor in cells stably expressing the S1P1 receptor. GTP γ^35S binding was measured in the medium containing (mM) HEPES 25, pH 7.4, MgCl2 10, NaCl 100, dithitothreitol 0.5, digitonin 0.003%, 0.2 nM GTP γ^35S, and 5 μg membrane protein in a volume of 150 μl. Test compounds were included in the concentration range from 0.08 to 5,000 nM unless indicated otherwise. Membranes were incubated with 100 μM 5′-adenylylimmidodiphosphate for 30 min, and subsequently with 10 μM GDP for 10 min on ice. Drug solutions and membrane were mixed, and then reactions were initiated by adding GTP γ^35S and continued for 30 min at 25° C. Reaction mixtures were filtered over Whatman GF/B filters under vacuum, and washed three times with 3 mL of ice-cold buffer (HEPES 25, pH7.4, MgCl2 10 and NaCl 100). Filters were dried and mixed with scintillant, and counted for ^35S activity using a 8-counter. Agonist-induced GTP γ^35S binding was obtained by subtracting that in the absence of agonist. Binding data were analyzed using a non-linear regression method. In case of antagonist assay, the reaction mixture contained 10 nM […] in the presence of test antagonist at concentrations ranging from 0.08 to 5000 nM.
Activity potency: S1P1 receptor from GTP γ^35S: nM, (EC50).
(In general: Binding of GTPγS marks nucleotide exchange on a G protein.)
A word on the EC50: it is the concentration at which the effect is half-maximal. A low value points to higher potency in that assay. On to `CCCCCCCCCCc1ccc(CNCCCP(=O)(O)O)c2ncccc12` [Compound 1, (3-{[(5-decylquinolin-8-yl)methyl]amino}propyl)phosphonic acid], for which a half-maximal effect (EC50) was put at 1.53 nM.
Take `CCCCCCCCC#Cc1ccc(CNCCCP(=O)(O)O)c2ncccc12` [Compound 2, (3-{[(5-dec-1-yn-1-ylquinolin-8-yl)methyl]amino}propyl)phosphonic acid]: the concentration giving a half-maximal response (EC50) turned out to be 3.39 nM.
Still for that read-out and setting: then `O=P(O)(O)CCCNCc1ccc(C#CCCCCCc2ccccc2)c2cccnc12` [Compound 3, [3-({[5-(7-phenylhept-1-yn-1-yl)quinolin-8-yl]methyl}amino)propyl]phosphonic acid], with 94 nM; and `O=P(O)(O)CCCNCc1ccc(C#CCCCCc2ccccc2)c2cccnc12` [Compound 4, [3-({[5-(6-phenylhex-1-yn-1-yl)quinolin-8-yl]methyl}amino)propyl]phosphonic acid], with 204 nM; and `O=P(O)(O)CCCNCc1ccc(CCCCCCCc2ccccc2)c2cccnc12` [Compound 5, [3-({[5-(7-phenylheptyl)quinolin-8-yl]methyl}amino)propyl]phosphonic acid], with 173 nM.
Same read-out and setting: as for `O=P(O)(O)CCCNCc1ccc(CCCCCCc2ccccc2)c2cccnc12` [Compound 7, [3-({[5-(6-phenylhexyl)quinolin-8-yl]methyl}amino)propyl]phosphonic acid], the figure is 5.45 nM; as for `O=P(O)(O)CCCNCc1ccc(C#CCCCc2ccccc2)c2cccnc12` [Compound 8, [3-({[5-(5-phenylpent-1-yn-1-yl)quinolin-8-yl]methyl}amino)propyl]phosphonic acid], 543 nM.
Still for that read-out and setting: as for `O=P(O)(O)OCCNCc1ccc(CCCCCCc2ccccc2)c2cccnc12` [Compound 11, 2-({[5-(6-phenylhexyl)quinolin-8-yl]methyl}amino)ethyl dihydrogen phosphate], the figure is 2.19 nM; as for `COc1cccc(CCCCC#Cc2ccc(CNCCCP(=O)(O)O)c3ncccc23)c1` [Compound 12, {3-[({5-[6-(3-methoxyphenyl)hex-1-yn-1-yl]quinolin-8-yl}methyl)amino]propyl}phosphonic acid], 18.3 nM.
In turn, `COc1cccc(CCCCCCc2ccc(CNCCCP(=O)(O)O)c3ncccc23)c1` [Compound 13, {3-[({5-[6-(3-methoxyphenyl)hexyl]quinolin-8-yl}methyl)amino]propyl}phosphonic acid] returned a 50% effective concentration (EC50) of 7.68 nM.
On the same count and under the same terms, then `CCCCCCCC/C=C/c1ccc(CNCCCP(=O)(O)O)c2ccccc12` [Compound 15, {3-[({4-[(1E)-dec-1-en-1-yl]-1-naphthyl}methyl)amino]propyl}phosphonic acid], with 138 nM; and `O=P(O)(O)CCCNCc1ccc(C#CCCCCc2ccccc2)c2ccccc12` [Compound 16, [3-({[4-(6-phenylhex-1-yn-1-yl)-1-naphthyl]methyl}amino)propyl]phosphonic acid], with 4.88 nM.
Still for that read-out and setting: then `O=P(O)(O)OCCNCc1ccc(CCCCCCc2ccccc2)c2ccccc12` [Compound 18, 2-({[4-(6-phenylhexyl)-1-naphthyl]methyl}amino)ethyl dihydrogen phosphate], with 55.5 nM; and `O=P(O)(O)CCCNCc1ccc(CCCCCCc2ccccc2)c2ccccc12` [Compound 19, [3-({[4-(6-phenylhexyl)-1-naphthyl]methyl}amino)propyl]phosphonic acid], with 5.59 nM.

For the next test, the system named is female C57BL6 mice. The experiment in a line: Lymphopenia assay in mice (in vivo blood lymphocyte depletion). Particulars: after 24 hours; after dosing; FIG. 1 legend. The procedure:
Test drugs are prepared in a solution containing 3% (w/v) 2-hydroxy propyl β-cyclodextrin (HPBCD) and 1% DMSO to a final concentration of 1 mg/ml, and subcutaneously injected to female C57BL6 mice (CHARLES RIVERS) weighing 20-25 g at the dose of 10 mg/Kg. Blood samples are obtained by puncturing the submandibular skin with a Goldenrod animal lancet at 5, 24, 48, 72, and 96 hrs post drug application. Blood is collected into microvettes (SARSTEDT) containing EDTA tripotassium salt. Lymphocytes in blood samples are counted using a HEMAVET Multispecies Hematology System, HEMAVET HV950FS (Drew Scientific Inc.). (Hale, J. et al Bioorg. & Med. Chem. Lett. 14 (2004) 3351).
A lymphopenia assay in mice, as previously described, was employed to measure the in vivo blood lymphocyte depletion after dosing Compound 5 (FIG. 1). These S1P agonists (or modulators) are useful for S1P-related diseases, and exemplified by the lymphopenia in vivo response. In general, test compounds were prepared in a solution containing 3% (w/v) 2-hydroxy propyl β-cyclodextrin (HPBCD) and 1% DMSO to a final concentration of 1 mg/ml, and subcutaneously injected to female C57BL6 mice (CHARLES RIVERS) weighing 20-25 g at the dose of 10 mg/Kg or 2 mg/Kg. […] Lymphocytes in blood samples were counted using a HEMAVET Multispecies Hematology System, HEMAVET HV950FS (Drew Scientific Inc.).
Turning to `O=P(O)(O)CCCNCc1ccc(CCCCCCCc2ccccc2)c2cccnc12` [Compound 5, [3-({[5-(7-phenylheptyl)quinolin-8-yl]methyl}amino)propyl]phosphonic acid], the lymphocyte count entry is “lowered lymphocyte count”.

Staying with this test, now noted: after 24 hours; subcutaneously injected, 10 mg/Kg or 2 mg/Kg; FIG. 1.
As to `O=P(O)(O)CCCNCc1ccc(CCCCCCCc2ccccc2)c2cccnc12` [Compound 5, [3-({[5-(7-phenylheptyl)quinolin-8-yl]methyl}amino)propyl]phosphonic acid], the number of lymphocytes is reported as < 1 10^3/μL blood.
